Assay [1] has as its system CLL cells. Description: In vitro stroma-induced CLL proliferation model (BrdU incorporation). The conditions noted are these: BTK-mutated (C481S) CLL cells, FIG. 3C, untreated 31%. The format is cell-based, human. (Incorporation of labelled thymidine or its analogues reports DNA synthesis.)
Assay [2] has as its system CML. The conditions noted are these: cited from earlier work.

Read-outs that look alike come from different tables or passages of the source.

`CC[C@H](Nc1ncnc2[nH]cnc12)c1nc2cccc(F)c2c(=O)n1-c1ccccc1` [GS-1101]: in assay [1], the proliferation turned out to be 14%. For `Cc1cccc(Nc2nc(N[C@@H]3CCCC[C@@H]3N)ncc2C(N)=O)c1` [PRT060318], the “proliferation (in words)” value in assay [1] is “complete inhibition of proliferation”.

`CCS(=O)(=O)N1CCN(c2ccc(Nc3ncc(C(N)=O)c(NC4CC4)n3)cc2)CC1` [PRT062070]: the “proliferation (in words)” value in assay [1] is recorded as “complete inhibition of proliferation”. In the case of `Cc1ccc(NC(=O)c2ccc(CN3CCN(C)CC3)cc2)cc1Nc1nccc(-c2cccnc2)n1` [imatinib], the patients who relapse was 66% in assay [2] (advanced CML) and 5% in assay [2] (chronic CML, within the first few years). Turning to `C[C@@H]1CCN(C(=O)CC#N)C[C@@H]1N(C)c1ncnc2[nH]ccc12` [tofacitinib], in assay [1], the proliferation worked out at 21%.
